Patent US20040014678A1, “Prevention of beta-amyloid neurotoxicity by blockade of the ubiquitin-proteasome proteolytoc pathway” (priority 2003, published 2004)
“Also recorded” adds a separate entry of the source. Residues, ends and D or L forms follow the SMILES beside them.

Columns and labels:
[1] = tested on: ubiquitination of neuronal proteins; experiment: Western blot of ubiquitinated neuronal proteins; assay type: cell-based, rat; details: for ubiquitinated proteins, agent alone: 72 h
Description: Lactacystin alone (lane 3), by blocking proteasome activity, causes an accumulation of ubiquitinated protein, although to a lesser extent than β-amyloid.
(§1) Hemispheres were separated, and meninges were carefully removed.
Western blot analysis was performed as previously described (Favit et al., 1998) with the following modifications. Proteins were extracted from neuronal pellets in a PBS solution containing 1 mg/ml leupeptin, 1 mg/ml pepstatin, 1 mg/ml chymostatin, 1 mg/ml antipain, and 0.2 mM phenylmethylsulfonyl fluoride. (Vannucci et al. (1998)). The crude homogenate was balanced with sample buffer containing 0.5 M Tris-HCl (pH 6.8), 10% glycerol, 2% sodium dodecyl sulfate, and 0.5% 2-mercaptoethanol to a final volume of 20 μl with a total protein concentration of […]. Sodium dodecyl sulfate-polyacrylamide gel electrophoresis was carried out in a 4-20% acrylamide gradient gel 1.5 mm thick. (Novex, San Diego, Calif., U.S.A.). Twenty micrograms per lane of protein of the crude homogenate was electrophoresed and transferred overnight onto a nitrocellulose membrane (Schleicher & Schuell). The membrane was blocked in 1% bovine serum albumin in 95% Tris-buffered saline for 1 h. Immunodetection of ubiquitin was obtained by exposing the membrane to an anti-ubaiqtin polyclonal primary antibody at 1:1,000 dilution for 1 h. Blots were then incubated with an anti-mouse alkaline phosphatase-conjugated secondary antibody for 1 h. Finally, the nitrocellulose was stained with a solution containing 0.1 M Tris-HCl (pH 9.6), 0.001 M MgCl2, 1% nitro blue terrazolium (Pierce), and 1% 5-bromo-4chloro-3-indolyl phosphate toluidine salt (Pierce). All reactions were carried out at room temperature. At least three independent sets of experiments were conducted.
Blocking ubiquitination with Leu-Ala or inhibiting proteasome activity with lactacystin prevent β-amyloid-induced neurotoxicity. […] Therefore, the ability of β-amyloid to cause ubiquitination of neuronal proteins was tested. Neurons were incubated with β-amyloid for 72 h in the presence of 50 nM lactacystin or 2 mM Leu-Ala and harvested. […] As a consequence of this, the target proteins are not degraded by the proteasome.

rat cortical neurons [2] = experiment: cells; assay type: cell-based
Description: FIGS. 3A and 3B show inhibition of β-amyloid (β-am) neurotoxicity by lactacystin (lacta) and Leu-Ala. Cell viability is assessed using the MTT assay. The conversion of tetrazolium salts is measured using a spectrophotometer and expressed as absorbance in arbitrary units. […] Lacta inhibits the neurotoxic effect cause by β-am in a concentration-dependent manner (•[formula]•).
as §1
Neurons plated at a density of 0.4×10^6 in 48-multiwell plates were exposed for the appropriate times to the test agents. MTT reduction was used to measure mitochondrial activity as an index of cell viability. The reaction was started by adding 0.4 mg/ml MTT in a PBS solution to the neurons. After 16 h of incubation at 37° C., 100 μl of pure dimethyl sulfoxide is added to each well. After an additional 12 h of incubation, absorbance values at 570 nm were determined with an automatic microplate reader, using 630 nm as a reference wavelength. Experiments were done in 48-multiwell plates allowing eight samples for each experimental point. Experiments were repeated at least three times.

rat cortical neurons [3] = experiment: Morphologic analysis of β-amyloid-induced cortical neuron damage (phase-contrast); details: for neuronal viability, agent alone: without β-amyloid
Description: FIGS. 1A, 1B, 1C and 1D provide morphologic analysis of β-amyloid-induced cortical neuron damage shown in representative phase-contrast images of cortical neurons at 13 days in vitro. Cells are treated for 5 days with vehicle (FIG. 1A), 50 nM lactacystin (FIG. 1B), 20 μM β-amyloid (FIG. 1C), or 20 μM β-amyloid+50 nM lactacystin (FIG. 1D).
(§2) Neurons were prepared from 17-day-old rat fetuses, according to a previously published protocol (Hampson et al. (1998)). In brief, the fetuses were decapitated, the brains were dissected and placed in phosphate-buffered saline (PBS) containing 4.5 g/L glucose. Hemispheres were separated, and meninges were carefully removed. Cortical tissues were freed from subcortical structures and cut into small fragments. Tissues were incubated with papain activated with cysteine for 10 min at 37° C. Papain was neutralized with a solution of ovomucoid and bovine serum albumin. Finally, tissues were mechanically dissociated until a single-cell suspension was obtained. Cells were plated in poly-D-lysine-coated 3.5-cm-diameter Petri dishes, 48-multiwell plates, or tissue culture flasks.

rat cortical neurons [4] = tested on: rat cortical neurons
Description: Cells are treated with the agents indicated in the respective heading (e.g. LACTA for lactacystin) and then stained with fluorescein and propidium. […] Data are mean±SE (bars) values.
as §2
Viability of cortical neurons was assessed with a propidium iodide exclusion test and fluorescein diacetate incorporation assessment, according to a previously published protocol. (Favit et al. (1992)). Rat cortical neurons seeded on 3.5-cm-diameter dishes were treated, washed with PBS, and incubated with a PBS solution containing 36 μM fluroescein diacetate and 7 μM propidium iodide for 3 min at room temperature. Cell viability was assessed by counting 100 cells per microscope field (using a 20× lens) for the number of fluorescein-labeled neurons versus propidium-positive cells. Experiments were conducted in duplicate and repeated at least three times. Statistical validity was assessed by ANOVA followed by a post hoc test.

## CC(=O)N[C@@H](CSC(=O)[C@]1([C@@H](O)C(C)C)NC(=O)[C@H](C)[C@@H]1O)C(=O)O [lactacystin]
[1]
  ubiquitinated proteins, agent alone: increases the presence of ubiquitinated protein
[1]; β-amyloid 72 h with 50 nM lactacystin
  β-amyloid-induced ubiquitination: not affected
Rat cortical neurons [2]; 50 nM lacta with β-am
  cell damage caused by β-am: clear reduction of the cell damage caused by β-am
Rat cortical neurons [2]; Rattus norvegicus, Cortical neurone, in presence of β-amyloid, read-out: apparent EC50 for blocking β-amyloid toxicity
  EC50: 30 nM
Rat cortical neurons [2]; highest concentration tested
  prevention of toxic effect of β-amyloid at the highest concentration tested: almost entirely prevents the toxic effect of β-amyloid
Rat cortical neurons [2]; in presence of β-amyloid
  concentration at which the protective effect is already statistically significant: 25 nM
  concentration at which the protective effect reaches an apparent plateau: 500 nM
Rat cortical neurons [3]; 50 nM lactacystin with 20 μM β-amyloid, 5 days
  β-amyloid-induced morphologic degeneration of neurons: prevented β-amyloid-induced morphologic degeneration of neurons
Rat cortical neurons [3]
  neuronal viability, agent alone: did not affect neuronal viability
Rat cortical neurons [4]; β-amyloid combined with 50 nM lactacystin
  β-amyloid-induced propidium staining: reversed to near control levels

## CC(C)C[C@H](N)C(=O)N[C@@H](C)C(=O)O [Leu-Ala, leucine-alanine dipeptide] (H-Leu-Ala-OH)
[1]
  ubiquitinated proteins, agent alone: does not affect protein ubiquitination in control cells
[1]; β-amyloid 72 h with 2 mM Leu-Ala
  β-amyloid-induced ubiquitination: markedly reduced; also recorded: completely prevented
Rat cortical neurons [2]; 2 mM Leu-Ala with β-am
  cell damage caused by β-am: clear reduction of the cell damage caused by β-am
Rat cortical neurons [3]
  neuronal viability, agent alone: did not affect neuronal viability

## β-Amyloid 1-40 [β-amyloid fragment 1-40]
[1]
  ubiquitinated proteins, agent alone: marked increase of ubiquitination of multiple proteins
Rat cortical neurons [2]
  viable cells (MTT): greatly decreases viable cells
Rat cortical neurons [4]
  fluorescein sequestration: not able to sequester fluorescein
  number of viable cells (cell counts): significantly reduces the number of viable cells
  propidium iodide staining: clear staining with propidium iodide

## CC(C)C[C@H](NC(=O)[C@H](C)N)C(=O)O [Ala-Leu] (H-Ala-Leu-OH)
Rat cortical neurons [2]; reverse dipeptide, data not shown
  reduction of β-amyloid toxicity: does not cause any reduction of β-amyloid toxicity
